Measurements published in patent publication US20140038985A1, “TREATMENT REGIMENS” (S1 Pharmaceuticals, Inc., priority 2011, published 2014).

Columns and labels:
[1] = tested on: healthy volunteer; assay: Patient's global impression of improvement (PGI) for sexual events: arousal, orgasm, overall satisfaction; same single-subject study; assay type: in vivo, human
Description: (§1) Method. […] (1) Treatment B: […] IR Trz 50 mg t.i.d.; […] Bup 75 mg t.i.d. A washout of 1-4 weeks occurred between each treatment. […] Sexual events were counted, and three domains (sexual arousal, orgasm, and overall satisfaction with the event) were scored. Each of the sexual event variables was converted to a simple patient's global impression of improvement (PGI; improved or not improved today compared to pre-treatment baseline). […] Bup is already recommended as a treatment for HSDD; Trz is not. Thus, Fisher's exact test was applied post-hoc to the PGIs for Treatment B vs. Treatment Llow (Llow) and vs. […] Upon the advice of the independent researcher the subject dichotomized their sexual event results in a simple daily patient's global impression of improvement: improved or not improved today (compared to pre-treatment baseline). The independent researcher, when told that the results were positive for the subject but before seeing any of the data, decided to apply categorical tests to the most obvious comparisons between treatments: for the first two weeks, the second two weeks, and for all four weeks of treatment, low-dose combination of bupropion plus trazodone vs. corresponding dose of bupropion; and high-dose the combination of bupropion plus trazodone vs. same dose of trazodone. The test used for the desire score was a two-tailed paired t test. The test used for the two-category variables was an online two-tailed Fisher's exact test. Both were from the website graphpad.com.*

[2] = tested on: healthy volunteer; assay: Daily 0-2 sexual desire score in a single-subject sequential four-treatment study (4 weeks each); assay type: in vivo, human; conditions: for Sexual desire response (in words): overall
Description: as §1

SMILES	Improvements in arousal, % of sexual events ([1]; third and fourth weeks of use) [%]	Improvements in arousal, % of sexual events ([1]; total for all four weeks) [%]	Improvements in arousal, % of sexual events ([1]; weeks 1-2) [%]	Improvements in arousal, fraction of sexual events ([1]; weeks 1-2)	Sexual desire response (in words) [2]	0-2 Daily Desire Score, % of max. (max. = 28) ([2]; wks 1-2) [%]	0-2 Daily Desire Score, % of max. (max. = 28) ([2]; wks 3-4)
CC(NC(C)(C)C)C(=O)c1cccc(Cl)c1 (racemic) [Bup, (±)-2-(tert-Butylamino)-1-(3-chlorophenyl)propan-1-one]	0	20	40	⅖	intermediate	32	50%
O=c1n(CCCN2CCN(c3cccc(Cl)c3)CC2)nc2ccccn12 [Trz, 2-{3-[4-(3-chlorophenyl)piperazin-1-yl]propyl}[1,2,4]triazolo[4,3-a]pyridin-3(2H)-one]	–	–	–	–	low	7	0, 0%
